From patent US20210400970A1, “COMPOSITIONS COMPRISING PYRIDINE CARBOXYLATE HERBICIDES AND MICROTUBULE ASSEMBLY INHIBITOR HERBICIDES” (priority 2018, published 2021)

Experiments:
Assay type in all cases: in vivo
Conditions in all cases: 20-22 d
[1] = test system: Glycine max (soybean, GLXMA); test: Greenhouse post-emergence herbicidal effect on volunteer soybean
Procedure: (§1) Seeds of the desired test plant species were planted in a 90:10% v/v (volume/volume) mixture of PRO-MIX® BX (Premier Tech Horticulture, Quakertown, Pa., USA) and PROFILE® GREENS GRADE™ (Profile Products LLC, Buffalo Grove, Ill., USA) planting mixture, which typically has a pH of 5.2 to 6.2 and an organic matter content of at least 50 percent, in plastic pots with a surface area of 103.2 square centimeters (cm^2). […] The plants were grown for 7-36 days (d) in a greenhouse with an approximate 14-hour (h) photoperiod which was maintained at about 23° C. during the day and 22° C. during the night. Nutrients and water were added on a regular basis and supplemental lighting was provided with overhead metal halide 1000-Watt lamps as necessary. The plants were employed for testing when they reached the second or third true leaf stage.
(§2) Emulsifiable concentrates of each of each pyridine carboxylate herbicide (Compound A or Compound B) were prepared at 100 grams acid equivalent per liter (g ae/L). The emulsifiable concentrates also included a safener, cloquintocet-mexyl, at 120 grams active ingredient per liter (g ai/L). An aliquot of each emulsifiable concentrate was placed in a 25 mL glass vial and diluted with an aqueous mixture of 1.25% (v/v) ACTIROB® B esterified rapeseed oil (Bayer Crop Science, Research Triangle Park, NC, USA) or MSO® Concentrate with LECI-TECH® methylated soybean oil (Loveland Products, Loveland, Colo., USA) to obtain concentrated stock solutions at the highest application rate for each herbicide, based upon a 12 milliliter (mL) application volume at a rate of 187 liters per hectare (L/ha). The concentrated stock solutions were further diluted with an aqueous mixture of 1.25% v/v ACTIROB® B or MSO® Concentrate with LECI-TECH® to obtain stock solutions at reduced application rates for each herbicide. Spray solutions of the herbicide combinations (Compound A or Compound B plus the MAI herbicide) were prepared by adding weighed amounts or aliquots of the MAI herbicide to the stock solutions of Compound A or Compound B to form 12-mL spray solutions in two-way combinations.
(§3) The spray solutions were applied to the plant material with an overhead Mandel track sprayer equipped with 8002E nozzles calibrated to deliver 187 L/ha over an application area of 0.503 square meters (m^2) at a spray height of 18 inches (43 centimeters (cm)) above the average plant canopy. Control plants were sprayed in the same manner with the solvent blank. All pyridine carboxylate herbicide (component a) application rates are given as “g ae/ha” and all MAI herbicide (component b) application rates are given as “g ai/ha.”
(§4) The treated plants and control plants were placed in a greenhouse as described above and watered by sub-irrigation to prevent wash-off of the test compounds. After 20-22 d, the condition of the test plants as compared with that of the control plants was determined visually and scored on a scale of 0 to 100 percent where 0 corresponds to no injury and 100 corresponds to complete kill.

[2] = test system: Lolium multiflorum (Italian ryegrass, LOLMU); test: Greenhouse post-emergence herbicidal effect on Italian ryegrass
Procedure: as §1, §2, §3, §4

[3] = test system: Polygonum convolvulus (wild buckwheat, POLCO); test: Greenhouse post-emergence herbicidal effect on wild buckwheat
Procedure: as §1, §2
(§5) The spray solutions were applied to the plant material with an overhead Mandel track sprayer equipped with 8002E nozzles calibrated to deliver 187 L/ha over an application area of 0.503 square meters (m^2) at a spray height of 18 inches (43 centimeters (cm)) above the average plant canopy. […]
as §4

[4] = test system: Setaria faberi (giant foxtail, SETFA); test: Greenhouse post-emergence herbicidal effect on giant foxtail
Procedure: as §1, §2, §3, §4

[5] = test system: Cirsium arvense (Canada thistle, CIRAR); test: Greenhouse post-emergence herbicidal effect on Canada thistle
Procedure: as §1, §2, §3, §4

[6] = test system: Rumex obtusifolius (broad-leaf dock, RUMOB); test: Greenhouse post-emergence herbicidal effect on broad-leaf dock
Procedure: as §1, §2, §3, §4

[7] = test system: Ipomoea hederacea (ivyleaf morningglory, IPOHE); test: Greenhouse post-emergence herbicidal effect on ivyleaf morningglory
Procedure: as §1, §2, §3, §4

[8] = test system: Kochia scoparia (kochia, KCHSC); test: Greenhouse post-emergence herbicidal effect on kochia
Procedure: as §1, §2, §3, §4

[9] = test system: Echinochloa crus-galli (barnyard grass, ECHCG); test: Greenhouse post-emergence herbicidal effect on barnyard grass
Procedure: as §1, §2, §3, §4

[10] = test system: Brassica napus (spring rape, BRSNN); test: Greenhouse post-emergence herbicidal effect on spring rape
Procedure: as §1, §2, §3, §4

[11] = test system: Digitaria sanguinalis (large crabgrass, DIGSA); test: Greenhouse post-emergence herbicidal effect on large crabgrass
Procedure: as §1, §2, §3, §4

[12] = test system: Viola tricolor (wild pansy, VIOTR); test: Greenhouse post-emergence herbicidal effect on wild pansy
Procedure: as §1, §2, §3, §4

[13] = test system: Chenopodium album L. (common lambsquarters, CHEAL); test: Greenhouse post-emergence herbicidal effect on common lambsquarters
Procedure: as §1, §2, §5, §4

[14] = test system: Abutilon theophrasti (velvetleaf, ABUTH); test: Greenhouse post-emergence herbicidal effect on velvetleaf
Procedure: as §1, §2, §5, §4

[15] = MAI herbicide alone, 560 g ai/ha
[16] = MAI herbicide alone, 280 g ai/ha

## CCC(CC)Nc1c([N+](=O)[O-])cc(C)c(C)c1[N+](=O)[O-] [Pendimethalin]
[1]; [15]
  Obs (% visual injury): 23%
[2]; [15]
  Obs (% visual injury): 0%
[3]; [15]
  Obs (% visual injury): 0%
[4]; [15]
  Obs (% visual injury): 0%
[5]; [15]
  Obs (% visual injury): 5%
[6]; [15]
  Obs (% visual injury): 0%
[7]; [15]
  Obs (% visual injury): 3%
[8]; [15]
  Obs (% visual injury): 18%
[9]; [15]
  Obs (% visual injury): 0%
[10]; [15]
  Obs (% visual injury): 15%
[11]; [15]
  Obs (% visual injury): 15%
[12]; [15]
  Obs (% visual injury): 0%

## N#CCOC(=O)c1nc(-c2ccc3cc[nH]c3c2F)c(F)c(N)c1Cl [Compound A, cyanomethyl 4-amino-3-chloro-5-fluoro-6-(7-fluoro-1H-indol-6-yl)pyridine-2-carboxylate]
[1]; Compound A alone, 7.5 g ae/ha
  Obs (% visual injury): 93%
[1]; Compound A alone, 10 g ae/ha
  Obs (% visual injury): 95%
[2]; Compound A alone, 7.5 g ae/ha
  Obs (% visual injury): 0%
[2]; Compound A alone, 10 g ae/ha
  Obs (% visual injury): 0%
[3]; Compound A alone, 7.5 g ae/ha
  Obs (% visual injury): 75%
[3]; Compound A alone, 10 g ae/ha
  Obs (% visual injury): 70%
[4]; Compound A alone, 7.5 g ae/ha
  Obs (% visual injury): 70%
[4]; Compound A alone, 10 g ae/ha
  Obs (% visual injury): 70%
[5]; Compound A alone, 7.5 g ae/ha
  Obs (% visual injury): 23%
[5]; Compound A alone, 10 g ae/ha
  Obs (% visual injury): 20%
[6]; Compound A alone, 7.5 g ae/ha
  Obs (% visual injury): 8%
[6]; Compound A alone, 10 g ae/ha
  Obs (% visual injury): 10%
[13]; Compound A alone, 7.5 g ae/ha
  Obs (% visual injury): 97%
[13]; Compound A alone, 10 g ae/ha
  Obs (% visual injury): 93%
[7]; Compound A alone, 7.5 g ae/ha
  Obs (% visual injury): 3%
[7]; Compound A alone, 10 g ae/ha
  Obs (% visual injury): 8%
[14]; Compound A alone, 7.5 g ae/ha
  Obs (% visual injury): 68%
[14]; Compound A alone, 10 g ae/ha
  Obs (% visual injury): 78%
[8]; Compound A alone, 7.5 g ae/ha
  Obs (% visual injury): 60%
[8]; Compound A alone, 10 g ae/ha
  Obs (% visual injury): 65%
[9]; Compound A alone, 7.5 g ae/ha
  Obs (% visual injury): 73%
[9]; Compound A alone, 10 g ae/ha
  Obs (% visual injury): 78%
[10]; Compound A alone, 7.5 g ae/ha
  Obs (% visual injury): 73%
[10]; Compound A alone, 10 g ae/ha
  Obs (% visual injury): 83%
[11]; Compound A alone, 7.5 g ae/ha
  Obs (% visual injury): 45%
[11]; Compound A alone, 10 g ae/ha
  Obs (% visual injury): 25%
[12]; Compound A alone, 7.5 g ae/ha
  Obs (% visual injury): 10%
[12]; Compound A alone, 10 g ae/ha
  Obs (% visual injury): 18%

## CSC(=O)c1c(C(F)F)nc(C(F)(F)F)c(C(=O)SC)c1CC(C)C [Dithiopyr]
[1]; [16]
  Obs (% visual injury): 13%
[2]; [16]
  Obs (% visual injury): 0%
[3]; [16]
  Obs (% visual injury): 0%
[4]; [16]
  Obs (% visual injury): 0%
[5]; [16]
  Obs (% visual injury): 0%
[6]; [16]
  Obs (% visual injury): 5%
[13]; [16]
  Obs (% visual injury): 10%
[7]; [16]
  Obs (% visual injury): 30%
[14]; [16]
  Obs (% visual injury): 40%
[8]; [16]
  Obs (% visual injury): 15%
[9]; [16]
  Obs (% visual injury): 0%
[10]; [16]
  Obs (% visual injury): 58%
[11]; [16]
  Obs (% visual injury): 33%
[12]; [16]
  Obs (% visual injury): 0%

## C#CC(C)(C)NC(=O)c1cc(Cl)cc(Cl)c1 [Propyzamide]
[1]; [16]
  Obs (% visual injury): 23%
[2]; [16]
  Obs (% visual injury): 0%
[4]; [16]
  Obs (% visual injury): 0%
[5]; [16]
  Obs (% visual injury): 0%
[6]; [16]
  Obs (% visual injury): 0%
[13]; [16]
  Obs (% visual injury): 0%
[7]; [16]
  Obs (% visual injury): 3%
[14]; [16]
  Obs (% visual injury): 5%
[8]; [16]
  Obs (% visual injury): 18%
[9]; [16]
  Obs (% visual injury): 0%
[10]; [16]
  Obs (% visual injury): 0%
[11]; [16]
  Obs (% visual injury): 0%
[12]; [16]
  Obs (% visual injury): 0%
